Publication PMC11939078, “TAK-994 mechanistic investigation into drug-induced liver injury” (Toxicological Sciences, 2025)

Key:
[1] = tested on: cynomolgus monkeys; assay: Monkey 39-week oral gavage toxicity study; assay type: in vivo, cynomolgus monkey; conditions: for Histopathological Liver Findings / ALT / AST / GLDH: monkey 39-week; for ALT / AST / GLDH: mean (SD)
Source text: TAK-994 performed well in tiered safety screening assays, with wide margins between in vitro IC50 and the predicted efficacious exposures (Table 1). […] Based on the safety profiles observed in these animal studies, TAK-994 progressed into phase I clinical trials.
^bAll dose levels had 4 animals per sex. No statistical difference was observed between the TAK-994 and control groups.

[2] = tested on: nonTg-rasH2 mice; assay: NonTg rasH2 mice 4-week oral gavage toxicity study; assay type: in vivo, mouse; conditions: for Histopathological Liver Findings / ALT / AST / GLDH: NonTg rasH2 mice 4-week; for ALT / AST / GLDH: mean (SD)
Experimental: Although phase I human clinical trials were ongoing, additional GLP-compliant repeat-dose oral toxicity studies were conducted in nonTg-rasH2 mice, to enable carcinogenicity studies. […] The liver toxicity presented at high doses ≥300 mg/kg/day as single-cell necrosis of periportal hepatocytes associated with increased aspartate aminotransferase (AST), alkaline phosphatase, ALT, and glutamate dehydrogenase values that increased in a dose-proportional manner alongside cytochrome P450 induction (Table S2).
^cAll dose levels had 10 animals per sex.
*p<0.05 using Shirley-Williams test.

[3] = tested on: human liver microtissues; assay: Human liver microtissue (co-culture) cytotoxicity, cellular ATP; assay type: cell-based
Experimental: Toxicology of TAK-994 was assessed using lnSphero’s 3D lnSight Human Liver models, based on N-acetyl-L-cysteine causality assay, glutathione depletion assay, and lipopolysaccharide (LPS)-sensitization assay. Hepatotoxicity was assessed in 7- and 14-day mono and co-culture models, in which cells were exposed to TAK-994 (0.1, 0.3, 1, 3.16, 10, 31.6, or 100 μM) […].
The test system was Human 3D InSight Liver Models, production ID hLiMT_589, cryopreserved primary human hepatocytes (Lot IPDH_18; single donor) in monoculture or in co-culture with cryopreserved primary human nonparenchymal cells (Lot IPHN_17; single donor). Human liver microtissues are composed of roughly 1000 hepatocytes and 1000 non-parenchymal live cells. Non-parenchymal liver cell fractions are expected to be composed of Kupffer cells and liver endothelial cells however, these were not identified.
The culture medium was 3D InSight Human Liver Maintenance Medium TOX (Catalogue No. CS-07-001, InSphero). The treated cells in 96-well Akura™ plates were incubated in a humidified cell culture incubator (37°C, 5% CO2).
Mono and co-culture model cells were exposed to TAK-994 (0.1, 0.3, 1, 3.16, 10, 31.6, or 100 μM in 0.5% DMSO) for 7 days (TAK-994 administered on Days 0 and 4) or 14 days (TAK-994 administered on Days 0, 5, and 9). Six replicates were tested for each condition. The vehicle control was 0.5% DMSO, and the positive control was chlorpromazine (0.1, 0.3, 1, 3.16, 10, 31.6, or 100 μM in DMSO). Cellular ATP content was measured in the cell lysate on Days 7 or 14 of treatment. LDH release was measured in the cell supernatant on Days 4 and 7 or on Days 5, 9, and 14 and normalized to lysed controls.
Intracellular ATP content in model lysates was measured with the CellTiter-Glo® 2.0 Cell Viability Assay (Catalogue No. G9243, Promega). The Bioluminescent LDH Release Toxicity Assay Kit (Catalogue No. J2380, Promega) was used to assess extracellular LDH release and normalized to lysed controls. ATP, LDH, GSH, and triglycerides were measured according to internal technical operating procedures.

Compound: CC(C)(O)C(=O)N1CC[C@H](NS(C)(=O)=O)[C@@H]1Cc1cccc(-c2cc(F)cc(F)c2)c1F.CC(C)(O)C(=O)N1CC[C@H](NS(C)(=O)=O)[C@@H]1Cc1cccc(-c2cc(F)cc(F)c2)c1F.O.O.O [TAK-994]
- adverse liver findings, chronic dose toxicity study ([1]; cynomolgus monkeys, 9-mo, up to the high dose tested of 1,000 mg/kg): no adverse liver findings
- Histopathological Liver Findings ([1]; female, 60 mg/kg): No adverse findings
- ALT ([1]; female, 60 mg/kg): 35 (9) IU/L
- AST ([1]; female, 60 mg/kg): 31 (6) IU/L
- GLDH ([1]; female, 60 mg/kg): 11 (2) IU/L
- Histopathological Liver Findings ([1]; female, 200 mg/kg): No adverse findings
- ALT ([1]; female, 200 mg/kg): 28 (9) IU/L
- AST ([1]; female, 200 mg/kg): 27 (12) IU/L
- GLDH ([1]; female, 200 mg/kg): 11 (1) IU/L
- Histopathological Liver Findings ([1]; female, 1000 mg/kg): No adverse findings
- ALT ([1]; female, 1000 mg/kg): 34 (10) IU/L
- AST ([1]; female, 1000 mg/kg): 24 (5) IU/L
- GLDH ([1]; female, 1000 mg/kg): 12 (1) IU/L
- Histopathological Liver Findings ([1]; male, 60 mg/kg): No adverse findings
- ALT ([1]; male, 60 mg/kg): 42 (20) IU/L
- AST ([1]; male, 60 mg/kg): 30 (12) IU/L
- GLDH ([1]; male, 60 mg/kg): 12 (3) IU/L
- Histopathological Liver Findings ([1]; male, 200 mg/kg): No adverse findings
- ALT ([1]; male, 200 mg/kg): 32 (2) IU/L
- AST ([1]; male, 200 mg/kg): 23 (7) IU/L
- GLDH ([1]; male, 200 mg/kg): 13 (1) IU/L
- Histopathological Liver Findings ([1]; male, 1000 mg/kg): No adverse findings
- ALT ([1]; male, 1000 mg/kg): 33 (9) IU/L
- AST ([1]; male, 1000 mg/kg): 22 (4) IU/L
- GLDH ([1]; male, 1000 mg/kg): 13 (3) IU/L
- Histopathological Liver Findings ([2]; female, 300 mg/kg): Single cell necrosis of hepatocytes
- ALT ([2]; female, 300 mg/kg): 175 (79)* IU/L
- AST ([2]; female, 300 mg/kg): 163 (65)* IU/L
- GLDH ([2]; female, 300 mg/kg): 172 (66)* IU/L
- Histopathological Liver Findings ([2]; female, 2000 mg/kg): Single cell necrosis of hepatocytes
- ALT ([2]; female, 2000 mg/kg): 581 (278)* IU/L
- AST ([2]; female, 2000 mg/kg): 317 (203)* IU/L
- GLDH ([2]; female, 2000 mg/kg): 562 (324)* IU/L
- Histopathological Liver Findings ([2]; female, 4000 mg/kg): Single cell necrosis of hepatocytes
- ALT ([2]; female, 4000 mg/kg): 1242 (604)* IU/L
- AST ([2]; female, 4000 mg/kg): 473 (216)* IU/L
- GLDH ([2]; female, 4000 mg/kg): 1384 (585)* IU/L
- Histopathological Liver Findings ([2]; male, 300 mg/kg): Single cell necrosis of hepatocytes
- ALT ([2]; male, 300 mg/kg): 99 (57)* IU/L
- AST ([2]; male, 300 mg/kg): 79 (34)* IU/L
- GLDH ([2]; male, 300 mg/kg): 104 (68)* IU/L
- Histopathological Liver Findings ([2]; male, 2000 mg/kg): Single cell necrosis of hepatocytes
- ALT ([2]; male, 2000 mg/kg): 337 (409)* IU/L
- AST ([2]; male, 2000 mg/kg): 211 (299)* IU/L
- GLDH ([2]; male, 2000 mg/kg): 331 (356)* IU/L
- Histopathological Liver Findings ([2]; male, 4000 mg/kg): Single cell necrosis of hepatocytes
- ALT ([2]; male, 4000 mg/kg): 1164 (330)* IU/L
- AST ([2]; male, 4000 mg/kg): 443 (150)* IU/L
- GLDH ([2]; male, 4000 mg/kg): 1303 (408)* IU/L
- doses at which liver toxicity (single-cell necrosis of periportal hepatocytes, increased AST, ALP, ALT, GLDH) presented ([2]; nonTg-rasH2 mice, repeat-dose oral): ≥ 300 mg/kg/day
- loss of cellular ATP ([3]; 100 µM TAK-994, presence of nonparenchymal cells): ~50%
- liver microtissue IC50 relative to clinical Cmax ([3]; 14 days, Cmax in patients dosed at 90 mg): > 100 fold
- IC50 ([3]; cellular ATP, read-out: IC50, liver microtissues (Fig. 2B)): > 100 µM
